Measured values as given in the METLIN SMRT retention time set (Domingo-Almenara et al. 2019).

Assay: gradient 5% acetonitrile 3 min, to 50% in 2 min, to 85% in 15 min, held 3 min, 100 µL/min
Settings: column: Zorbax Extend-C18 2.1 x 50 mm; eluents: water / acetonitrile, 0.1% formic acid
Method in brief: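 The system's dead and dwell volumes were 40 μL and 900 μL, with a Zorbax Extend-C18 column (2.1 × 50 mm, 1.8 μm) run at 100 μL/min in water and acetonitrile containing 0.1% formic acid each. Pure standards were analyzed in mixtures of ~100 molecules by HPLC–quadrupole time-of-flight mass spectrometry in positive and negative ionization mode. Retention time was assigned from computationally picked, manually inspected adduct peaks.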

SMILES | RP-LC retention time [s]
CC(C)n1c(=O)oc2cc(-c3noc(-c4cccc(Cl)c4)n3)ccc21 | 1180
CCOC(=O)c1c(C)[nH]c(CCC(=O)NCc2ccc(C)o2)c1C | 816
O=C(NC1CCN(c2cc(N3CCOCC3)cnn2)C1)C1CCCC1 (stereo unspecified) | 548
CCCN1C(=O)COc2ccc(-c3noc(-c4cc(OC)cc(OC)c4)n3)cc21 | 1240
NC(=O)CSc1nnc(CCc2nc3ccccc3s2)o1 | 633
Cc1c(Cl)cccc1-n1ccn2cc(-c3ccccc3)nc2c1=O | 880
Cc1ccc(S(=O)(=O)N2CCC(c3nc(-c4ccccn4)no3)CC2)cc1C | 970
CC(C)Nc1nc(-c2ccc([N+](=O)[O-])cc2)nc2ccccc12 | 751
COCCn1cnc2c(-c3ccccc3)cn(CC(=O)NCc3ccc4c(c3)OCO4)c2c1=O | 828
CCCN(CC1CCOC1)S(=O)(=O)c1cccc(OC)c1 (stereo unspecified) | 881
CCOC(=O)Nc1ccccc1NC(=O)OCC | 717
CCn1c(C)nnc1SCc1nc(-c2ccc(OC)c(OC)c2)oc1C | 651
CCCS(=O)(=O)N1CCC(N2C(=O)[C@H](OC)[C@@H]2c2ccncc2)CC1 | 700
CCSc1nnc(NC(=O)CSc2nncn2C)s1 | 606
CCN1C(=O)C(CC(=O)NCCCN(C)C)Sc2ncccc21 (stereo unspecified) | 559
O=C(C1CCC1)N1CCC(n2cnnc2C2CC2)CC1 | 598
Cc1ccn(-c2cc(Cl)ccc2[C@@H](Oc2cc(-c3ccc(C[C@H](N)C(=O)O)cc3)nc(N)n2)C(F)(F)F)n1 | 834
COc1ccc(OC)c(CNC(=O)C2CCN(c3cncnc3N3CCCCC3)CC2)c1 | 688
Cn1cc(C(F)(F)F)nc1-c1ccc(OCC(O)CNCCOc2ccc(O)c(C(N)=O)c2)cc1 (stereo unspecified) | 710
CCc1noc(C2CCCCN2Cc2nc(Cc3ccccc3)no2)n1 (stereo unspecified) | 958
O=C(NCCc1ccccc1)c1nc(Cn2c(=O)oc3ccc(Cl)cc32)no1 | 966
O=C(CCC1CCCC1)NC1(c2nc(-c3cccnc3)no2)CCCCC1 | 1020
CN(C)C(=O)c1ccc2c(c1)N(CC(=O)NC1CCCCC1)C(=O)C1CCCCN21 (stereo unspecified) | 743

SMILES | RP-LC retention time [s]
COc1cc(-c2nc3ncccn3c2Nc2ccc3c(c2)OCO3)ccc1O | 621
CCn1cc(C(=O)Nc2ccccc2C)c2cccnc21 | 791
CC(C)CN(CC(C)C)C(=O)C1CCN(S(=O)(=O)c2ccc3c(c2)CCCC(=O)N3)CC1 | 851
CCc1cc(C2CCCN2Cc2cc(OC)c(O)c(OC)c2)on1 (stereo unspecified) | 575
Cc1noc(-c2ccnc(-n3ncc(C(=O)N4CCC(C)CC4)c3C)c2)n1 | 946
CCCNC(=O)C1CCCN(C(=O)c2[nH]c(C)c(C(=O)OCC)c2C)C1 (stereo unspecified) | 712
Cc1ccccc1Nc1c(-c2ccc(O)cc2)nc2ccccn12 | 653
Cc1cc2c(cc1CNC(=O)c1cc3c(cc1C)OCCCO3)OCCO2 | 846
COc1ccc(-c2nc(-c3nnn(Cc4ccccc4)c3C)no2)cc1OC | 959
CN(CC(=O)Nc1nnc(SCc2ccc(Cl)cc2Cl)s1)S(C)(=O)=O | 874
CSc1ccc(-c2nc3nc(C)cc(C)n3c2Nc2ccc(C)cc2)cc1 | 810
CC1CCC(NC(=O)C2CCN(S(=O)(=O)c3ccc4c(c3)sc(=O)n4C(C)C)CC2)CC1 (stereo unspecified) | 1020
Cc1cc(NS(=O)(=O)c2cc(-c3nc(C(C)(C)C)cs3)cs2)ccc1F | 1220
CC(=O)c1cccc(NC(=O)c2cc(-c3cccnc3)nc3ccccc23)c1 | 739
COc1cccc(-n2c(=O)c(C(=O)Nc3ccc(F)cc3F)c(O)c3cccnc32)c1 | 1220
Cn1nccc1-c1cccc(-c2noc(Cc3ccc(Br)cc3)n2)c1 | 1150
Cc1ccc(OCC(=O)Nc2nnc(SCc3nnc(-c4ccccc4C)o3)s2)c(C)c1 | 1100
O=C(/C=C/c1ccc(CN(CCO)CCc2c[nH]c3ccccc23)cc1)NO | 622
Cc1cc(C(=O)N2c3ccccc3CC2c2nnc(C3CC3)o2)nn1C (stereo unspecified) | 786
CC(C)N1CCn2cc(S(=O)(=O)Nc3ccc(F)cc3F)cc2C1=O | 759
COc1cc2c(cc1OC)C(C(=O)NCCN(C)C)C(c1ccccc1F)N(C)C2=O (stereo unspecified) | 599
COCCN(C)C(=O)c1cc2c(s1)N(C)CCCC2 | 770

Continued, values first:

RP-LC retention time [s] | SMILES
679 | Cc1ccc2[nH]cc(CCN3CC(C(=O)N4CCOCC4)CC3=O)c2c1 (stereo unspecified)
1090 | COc1c(C(=O)N2CCN(c3ccccc3)CC2)sc2cccc(F)c12
954 | CCC(C)NC(=O)N1CCC2(CC1)Nc1cc(F)ccc1-n1cccc12 (stereo unspecified)
663 | COc1ccccc1OCCNC(=O)[C@@]12CCCC[C@H]1N(C)C(=O)CC2
839 | Cc1[nH]c(C(=O)N2CCC(CC(=O)NCc3cccc(F)c3)CC2)c(C)c1C(=O)OC(C)C
807 | Cc1ccc(-n2nc(C)c(S(=O)(=O)N3CCC(C(=O)NCC4CCCO4)CC3)c2C)cc1 (stereo unspecified)
1190 | Cc1ccc(C)c(C(=O)N2CCCC2c2nc(-c3cccc(Cl)c3)no2)c1 (stereo unspecified)
856 | O=C(NC1CCCC1)C1c2ccccc2CC(=O)N1Cc1ccccc1 (stereo unspecified)
795 | O=C(O)CSc1nc2ccccc2s1
1100 | CCn1cc(-c2nc(CC(=O)Nc3ccc(Cl)cc3F)cs2)c2cccnc21
939 | COC(=O)C1=CN(c2ccc(Br)cc2)c2cc(F)ccc2S1(=O)=O
616 | CCOC(=O)c1c(C)c(CCC(=O)N2CCN(c3ccccn3)CC2)n(C)c1C
673 | COc1cc(OC)c(NC(=O)Cn2nc3n(c2=O)CCCC3)cc1Cl
1020 | CCc1ccc(S(=O)(=O)NCc2c(-c3ccccc3)nc3sc(CC)nn23)cc1
889 | CC(C)Cn1cc(CCNC(=O)Nc2ccc(Cl)cc2)c2cccnc21
601 | CCc1nc2cc(N3CCC(C(=O)NCc4ccccn4)CC3)cnc2nc1CC
676 | Cc1cccc(N2CCN(C(=O)c3ccc(Cn4cncn4)cc3)CC2C)c1 (stereo unspecified)
848 | CCOc1cc(=O)n2c(c1C(=O)Nc1ccc(Br)c(C)c1)CCCC2
612 | CCc1ccc(NC(=O)N2CCc3nc[nH]c3C2)cc1
749 | CCCn1nc2n(c1=O)CCN(Cc1ccc(C)c(C)c1)C2
1100 | COc1ccc(-c2ncc3c(n2)CCN(S(=O)(=O)c2ccc(F)c(C)c2)C3)cc1
1160 | O=C(Nc1ccsc1-c1nnc(C2CC2)o1)c1cccs1
929 | O=C(Nc1ccc2c(c1)OCO2)c1cccc2c1CCN2C(=O)Nc1ccc(F)cc1

RP-LC retention time [s] | SMILES
744 | O=C(Cn1nc2c3cc(F)ccc3ncn2c1=O)Nc1ccc(Cl)cc1
852 | Cc1ccc(CSc2nnc3c(S(=O)(=O)N4CCCC4)cccn23)cc1
603 | COc1ccccc1C(=O)NCc1ccc2c(c1)ncn2C(C)C
763 | COc1ccccc1NC(=O)N1CCC(CNC(=O)c2ccccc2C(F)(F)F)CC1
642 | CN(C)S(=O)(=O)c1ccc(-c2nnc(C(=O)NCCN3CCc4ccccc4C3)o2)cc1
1120 | CC(C)c1csc(-c2csc(S(=O)(=O)NCc3ccc(F)cc3)c2)n1
1140 | Cc1nc(-c2cn(C(C)C)c3ncccc23)sc1C(=O)Nc1cccc(F)c1
792 | COCCNC(=O)c1nn(-c2ccc(Cl)cc2)nc1CO
814 | O=C(CCCN1CCN(Cc2ccc(F)cc2)C(=O)C1=O)Nc1ccc(Br)cc1F
743 | O=C(NCc1cc(F)ccc1F)C1CCc2nc(N3CCCCC3)ncc2C1 (stereo unspecified)
664 | COc1ccc(OC)c(NC(=O)N2CCN(Cc3cn(C)c4ccccc34)CC2)c1
618 | COCCc1nncn1C1CCN(C(=O)c2cc(F)ccc2F)CC1
919 | Cc1cc(C)cc(N2C(=O)CN(S(C)(=O)=O)CC2(C)C(=O)NCc2ccc(Cl)cc2)c1 (stereo unspecified)
693 | CC1=C(c2ccccc2)S(=O)(=O)N=C1N1CCCN(C(=O)c2ccccn2)CC1
687 | Cn1nc(COc2ccccc2)c2c1CCN(C(=O)c1ccccn1)C2
790 | Cc1cc(-c2nnc(C3CC3)o2)c(C)n1CC(=O)NC(C)c1ccccc1 (stereo unspecified)
970 | CCCn1cc2c3c(cccc31)CN(C(=O)Nc1cc(OC)c(OC)c(OC)c1)CC2
790 | O=[N+]([O-])c1ccc(CNc2nc(NCc3cccc(C(F)(F)F)c3)nc3nc[nH]c23)cc1
829 | CCn1ncc(NC(=O)c2ccccc2OC)c(N2CCOCC2)c1=O
931 | Cc1ccc(NC(=O)NC2CCN(c3ccc(C)c(C)c3)C2=O)cc1 (stereo unspecified)
749 | COc1cccc(C(=O)N2CCC3(C2)C(=O)N(C)c2ccccc23)c1OC (stereo unspecified)
621 | COc1ccccc1CNc1ncnc2c1CCC2
684 | Cc1c(CNCc2ccco2)c(C(=O)O)c(C)n1Cc1cccc(F)c1
